# In patent US20240261249A1, “NOVEL SQUARAMIDE DERIVATIVE AND USE THEREOF” (PUSAN NATIONAL UNIVERSITY INDUSTRY-UNIVERSITY COOPERATION …, priority 2021, published 2024):
# Test system: Phospho-eIF2α (Ser51)
# Assay: Phospho-eIF2α (Ser51) Sandwich ELISA in K562 cells
# Format: cell-based
# Settings: Homo sapiens, K562, 6 h, serum-free RPMI, 10 μM compound, control = 1, read-out: eIF2α phosphorylation, absorbance standardized to control (DMSO-treated) set to 1, at 10 μM
# Description: Pathscan Phospho-eIF2α (Ser51) Sandwich ELISA Kit #7286 from Cell signaling was used. The K562 cell line was cultured in serum-free RPMI medium at 37° C. in the presence of 5% CO2. Cells were treated with test compounds at a concentration of 10 μM. Six hours after compound treatment, the cells were lysed with a lysis buffer included in the kit to obtain 50 μg of protein by quantification. Afterwards, ELISA assay was performed according to the manufacturer's protocol to obtain absorbance. The absorbance for each obtained compound was standardized to a value of which the control (DMSO-treated) is set to 1.
row,SMILES,activity at 10 µM [%]
1,"NS(=O)(=O)c1ccc(O[C@H]2CC[C@H](Nc3c(Nc4cccc(C(F)(F)F)c4)c(=O)c3=O)CC2)cc1 [Compound 27, 4-(((1,4-trans)-4-((3,4-Dioxo-2-((3-(trifluoromethyl)phenyl)amino)cyclobut-1-en-1-yl)amino)cyclohexyl)oxy)benzenesulfonamide]",108
2,"COc1cccc(Nc2c(N[C@H]3CC[C@H](Oc4ccc(C#N)cc4)CC3)c(=O)c2=O)c1 [Compound 34, 4-(((1,4-trans)-4-((2-((3-Methoxyphenyl)amino)-3,4-dioxocyclobut-1-en-1-yl)amino)cyclohexyl)oxy)benzonitrile]",83
3,"COc1cccc(Nc2c(N[C@H]3CC[C@H](Oc4ccc(S(C)(=O)=O)cc4)CC3)c(=O)c2=O)c1 [Compound 36, 3-((3-Methoxyphenyl)amino)-4-(((1,4-trans)-4-(4-(methylsulfonyl)phenoxy)cyclohexyl)amino)cyclobut-3-ene-1,2-dione]",60
4,"COc1cccc(Nc2c(N[C@H]3CC[C@H](Oc4ccc(S(N)(=O)=O)cc4)CC3)c(=O)c2=O)c1 [Compound 37, 4-(((1,4-trans)-4-((2-((3-Methoxyphenyl)amino)-3,4-dioxocyclobut-1-en-1-yl)amino)cyclohexyl)oxy)benzenesulfonamide]",67
5,"O=c1c(Nc2ccc(F)cc2)c(N[C@H]2CC[C@H](Oc3ccc(C(F)(F)F)cc3)CC2)c1=O [Compound 38, 3-((4-Fluorophenyl)amino)-4-(((1,4-trans)-4-(4-(trifluoromethyl)phenoxy)cyclohexyl)amino)cyclobut-3-ene-1,2-dione]",65
6,"N#Cc1ccc(O[C@H]2CC[C@H](Nc3c(Nc4ccc(F)cc4)c(=O)c3=O)CC2)cc1 [Compound 39, 4-(((1,4-trans)-4-((2-((4-Fluorophenyl)amino)-3,4-dioxocyclobut-1-en-1-yl)amino)cyclohexyl)oxy)benzonitrile]",83
7,"O=c1c(Nc2ccc(F)cc2)c(N[C@H]2CC[C@H](Oc3ccc([N+](=O)[O-])cc3)CC2)c1=O [Compound 40, 3-((4-Fluorophenyl)amino)-4-(((1,4-trans)-4-(4-nitrophenoxy)cyclohexyl)amino)cyclobut-3-ene-1,2-dione]",82
8,"CS(=O)(=O)c1ccc(O[C@H]2CC[C@H](Nc3c(Nc4ccc(F)cc4)c(=O)c3=O)CC2)cc1 [Compound 41, 3-((4-Fluorophenyl)amino)-4-(((1,4-trans)-4-(4-(methylsulfonyl)phenoxy)cyclohexyl)amino)cyclobut-3-ene-1,2-dione]",62
9,"O=c1c(Nc2ccc(Cl)cc2)c(N[C@H]2CC[C@H](Oc3ccc(C(F)(F)F)cc3)CC2)c1=O [Compound 42, 3-((4-Chlorophenyl)amino)-4-(((1,4-trans)-4-(4-(trifluoromethyl)phenoxy)cyclohexyl)amino)cyclobut-3-ene-1,2-dione]",93
10,"N#Cc1ccc(O[C@H]2CC[C@H](Nc3c(Nc4ccc(Cl)cc4)c(=O)c3=O)CC2)cc1 [Compound 43, 4-(((1,4-trans)-4-((2-((4-Chlorophenyl)amino)-3,4-dioxocyclobut-1-en-1-yl)amino)cyclohexyl)oxy)benzonitrile]",87
11,"O=c1c(Nc2ccc(Cl)cc2)c(N[C@H]2CC[C@H](Oc3ccc([N+](=O)[O-])cc3)CC2)c1=O [Compound 44, 3-((4-Chlorophenyl)amino)-4-(((1,4-trans)-4-(4-nitrophenoxy)cyclohexyl)amino)cyclobut-3-ene-1,2-dione]",147
12,"CS(=O)(=O)c1ccc(O[C@H]2CC[C@H](Nc3c(Nc4ccc(Cl)cc4)c(=O)c3=O)CC2)cc1 [Compound 45, 3-((4-Chlorophenyl)amino)-4-(((1,4-trans)-4-(4-(methylsulfonyl)phenoxy)cyclohexyl)amino)cyclobut-3-ene-1,2-dione]",79
13,"O=c1c(Nc2ccc(C(F)(F)F)cc2)c(N[C@H]2CC[C@H](Oc3ccc(C(F)(F)F)cc3)CC2)c1=O [Compound 46, 3-(((1,4-trans)-4-(4-(Trifluoromethyl)phenoxy)cyclohexyl)amino)-4-((4-(trifluoromethyl)phenyl)amino)cyclobut-3-ene-1,2-dione]",71
14,"N#Cc1ccc(O[C@H]2CC[C@H](Nc3c(Nc4ccc(C(F)(F)F)cc4)c(=O)c3=O)CC2)cc1 [Compound 47, 4-(((1,4-trans)-4-((3,4-Dioxo-2-((4-(trifluoromethyl)phenyl)amino)cyclobut-1-en-1-yl)amino)cyclohexyl)oxy)benzonitrile]",51
15,"O=c1c(Nc2ccc(C(F)(F)F)cc2)c(N[C@H]2CC[C@H](Oc3ccc([N+](=O)[O-])cc3)CC2)c1=O [Compound 48, 3-(((1,4-trans)-4-(4-Nitrophenoxy)cyclohexyl)amino)-4-((4-(trifluoromethyl)phenyl)amino)cyclobut-3-ene-1,2-dione]",91
16,"CC(C)(C)c1ccc(Nc2c(N[C@H]3CC[C@H](Oc4ccc(C(F)(F)F)cc4)CC3)c(=O)c2=O)cc1 [Compound 50, 3-((4-(tert-Butyl)phenyl)amino)-4-(((1,4-trans)-4-(4-(trifluoromethyl)phenoxy)cyclohexyl)amino)cyclobut-3-ene-1,2-dione]",204
17,"CC(C)(C)c1ccc(Nc2c(N[C@H]3CC[C@H](Oc4ccc(C#N)cc4)CC3)c(=O)c2=O)cc1 [Compound 51, 4-(((1,4-trans)-4-((2-((4-(tert-Butyl)phenyl)amino)-3,4-dioxocyclobut-1-en-1-yl)amino)cyclohexyl)oxy)benzonitrile]",182
18,"CC(C)(C)c1ccc(Nc2c(N[C@H]3CC[C@H](Oc4ccc([N+](=O)[O-])cc4)CC3)c(=O)c2=O)cc1 [Compound 52, 3-((4-(tert-Butyl)phenyl)amino)-4-(((1,4-trans)-4-(4-nitrophenoxy)cyclohexyl)amino)cyclobut-3-ene-1,2-dione]",77
19,"CC(C)(C)c1ccc(Nc2c(N[C@H]3CC[C@H](Oc4ccc(S(C)(=O)=O)cc4)CC3)c(=O)c2=O)cc1 [Compound 53, 3-((4-(tert-Butyl)phenyl)amino)-4-(((1,4-trans)-4-(4-(methylsulfonyl)phenoxy)cyclohexyl)amino)cyclobut-3-ene-1,2-dione]",133
20,"COc1ccc(Nc2c(N[C@H]3CC[C@H](Oc4ccc(C(F)(F)F)cc4)CC3)c(=O)c2=O)cc1 [Compound 54, 3-((4-Methoxyphenyl)amino)-4-(((1,4-trans)-4-(4-(trifluoromethyl)phenoxy)cyclohexyl)amino)cyclobut-3-ene-1,2-dione]",182
21,"COc1ccc(Nc2c(N[C@H]3CC[C@H](Oc4ccc(C#N)cc4)CC3)c(=O)c2=O)cc1 [Compound 55, 4-(((1,4-trans)-4-((2-((4-Methoxyphenyl)amino)-3,4-dioxocyclobut-1-en-1-yl)amino)cyclohexyl)oxy)benzonitrile]",84
22,"COc1ccc(Nc2c(N[C@H]3CC[C@H](Oc4ccc([N+](=O)[O-])cc4)CC3)c(=O)c2=O)cc1 [Compound 56, 3-((4-Methoxyphenyl)amino)-4-(((1,4-trans)-4-(4-nitrophenoxy)cyclohexyl)amino)cyclobut-3-ene-1,2-dione]",227
23,"COc1ccc(Nc2c(N[C@H]3CC[C@H](Oc4ccc(S(C)(=O)=O)cc4)CC3)c(=O)c2=O)cc1 [Compound 57, 3-((4-Methoxyphenyl)amino)-4-(((1,4-trans)-4-(4-(methylsulfonyl)phenoxy)cyclohexyl)amino)cyclobut-3-ene-1,2-dione]",211
24,"COC(=O)c1ccc(Nc2c(N[C@H]3CC[C@H](Oc4ccc(C(F)(F)F)cc4)CC3)c(=O)c2=O)cc1 [Compound 58, Methyl 4-((3,4-dioxo-2-(((1,4-trans)-4-(4-(trifluoromethyl)phenoxy)cyclohexyl)amino)cyclobut-1-en-1-yl)amino)benzoate]",97
25,"COC(=O)c1ccc(Nc2c(N[C@H]3CC[C@H](Oc4ccc(C#N)cc4)CC3)c(=O)c2=O)cc1 [Compound 59, Methyl 4-((2-(((1,4-trans)-4-(4-cyanophenoxy)cyclohexyl)amino)-3,4-dioxocyclobut-1-en-1-yl)amino)benzoate]",83
26,"COC(=O)c1ccc(Nc2c(N[C@H]3CC[C@H](Oc4ccc([N+](=O)[O-])cc4)CC3)c(=O)c2=O)cc1 [Compound 60, Methyl 4-((2-(((1,4-trans)-4-(4-nitrophenoxy)cyclohexyl)amino)-3,4-dioxocyclobut-1-en-1-yl)amino)benzoate]",97
27,"COC(=O)c1ccc(Nc2c(N[C@H]3CC[C@H](Oc4ccc(S(C)(=O)=O)cc4)CC3)c(=O)c2=O)cc1 [Compound 61, Methyl 4-((2-(((1,4-trans)-4-(4-(methylsulfonyl)phenoxy)cyclohexyl)amino)-3,4-dioxocyclobut-1-en-1-yl)amino)benzoate]",148
28,"O=c1c(Nc2ccccc2F)c(N[C@H]2CC[C@H](Oc3ccc(C(F)(F)F)cc3)CC2)c1=O [Compound 62, 3-((2-Fluorophenyl)amino)-4-(((1,4-trans)-4-(4-(trifluoromethyl)phenoxy)cyclohexyl)amino)cyclobut-3-ene-1,2-dione]",182
29,"N#Cc1ccc(O[C@H]2CC[C@H](Nc3c(Nc4ccccc4F)c(=O)c3=O)CC2)cc1 [Compound 63, 4-(((1,4-trans)-4-((2-((2-Fluorophenyl)amino)-3,4-dioxocyclobut-1-en-1-yl)amino)cyclohexyl)oxy)benzonitrile]",75
30,"O=c1c(Nc2ccccc2F)c(N[C@H]2CC[C@H](Oc3ccc([N+](=O)[O-])cc3)CC2)c1=O [Compound 64, 3-((2-Fluorophenyl)amino)-4-(((1,4-trans)-4-(4-nitrophenoxy)cyclohexyl)amino)cyclobut-3-ene-1,2-dione]",133
